Consider twelve compounds from the NIST ThermoML archive (doi:10.1016/j.fluid.2006.03.002).

± gives the expanded uncertainty stated by the source.

A short description of the first data set: activity coefficient (dimensionless); of the first substance listed, at infinite dilution; xn = mol fraction of the nth substance listed. Particulars: 308.15 K; Liquid; Chromatography; x1 = 0.
`C=CCCCC` [hex-1-ene] + CCCC[P+](C)(CCCC)CCCC.COS(=O)(=O)[O-]: the activity coefficient came to 6.4 ± 0.4.
For the compound `C=CCCCCC` [1-heptene] + CCCC[P+](C)(CCCC)CCCC.COS(=O)(=O)[O-], the activity coefficient worked out at 8.2 ± 0.6.
Turning to `c1ccccc1` [benzene] + CCCC[P+](C)(CCCC)CCCC.COS(=O)(=O)[O-], the activity coefficient stood at 1 ± 0.1.
Take `C=CCCCCCC` [oct-1-ene] + CCCC[P+](C)(CCCC)CCCC.COS(=O)(=O)[O-]: the activity coefficient stood at 10.1 ± 0.7.
As to `CCCCCCC` [heptane] + CCCC[P+](C)(CCCC)CCCC.COS(=O)(=O)[O-], the activity coefficient turned out to be 13.4 ± 0.9.
For the compound `C1CCCC1` [cyclopentane] + CCCC[P+](C)(CCCC)CCCC.COS(=O)(=O)[O-], the activity coefficient came out at 4.5 ± 0.3.
In the case of `C#CCCCC` [1-hexyne] + CCCC[P+](C)(CCCC)CCCC.COS(=O)(=O)[O-], the activity coefficient was 1.8 ± 0.1.
For `C1CCCCC1` [cyclohexane] + CCCC[P+](C)(CCCC)CCCC.COS(=O)(=O)[O-], the activity coefficient was 5.5 ± 0.4.
Regarding `C1CCCCCC1` [cycloheptane] + CCCC[P+](C)(CCCC)CCCC.COS(=O)(=O)[O-], the activity coefficient was 6.5 ± 0.4.
Turning to `CCCCC` [pentane] + CCCC[P+](C)(CCCC)CCCC.COS(=O)(=O)[O-], the activity coefficient was found to be 8.1 ± 0.6.
On to `CCCCCC` [hexane] + CCCC[P+](C)(CCCC)CCCC.COS(=O)(=O)[O-], for which the activity coefficient came out at 10.3 ± 0.7.
`CCCCCCCC` [octane] + CCCC[P+](C)(CCCC)CCCC.COS(=O)(=O)[O-]: the activity coefficient was found to be 17.3 ± 1.2.

Staying with this data set, now noted: 318.15 K; Liquid; Chromatography; x1 = 0.
Take `C=CCCCC` [hex-1-ene] + CCCC[P+](C)(CCCC)CCCC.COS(=O)(=O)[O-]: the activity coefficient amounted to 6 ± 0.4.
Regarding `C=CCCCCC` [1-heptene] + CCCC[P+](C)(CCCC)CCCC.COS(=O)(=O)[O-], the activity coefficient came out at 8 ± 0.5.
As for `c1ccccc1` [benzene] + CCCC[P+](C)(CCCC)CCCC.COS(=O)(=O)[O-], the activity coefficient came to 1 ± 0.1.
With `C=CCCCCCC` [oct-1-ene] + CCCC[P+](C)(CCCC)CCCC.COS(=O)(=O)[O-], the activity coefficient stood at 10 ± 0.7.
For `CCCCCCC` [heptane] + CCCC[P+](C)(CCCC)CCCC.COS(=O)(=O)[O-], the activity coefficient was determined as 12.2 ± 0.8.
On to `C1CCCC1` [cyclopentane] + CCCC[P+](C)(CCCC)CCCC.COS(=O)(=O)[O-], for which the activity coefficient was determined as 4.3 ± 0.3.
`C#CCCCC` [1-hexyne] + CCCC[P+](C)(CCCC)CCCC.COS(=O)(=O)[O-]: the activity coefficient stood at 1.7 ± 0.1.
In the case of `C1CCCCC1` [cyclohexane] + CCCC[P+](C)(CCCC)CCCC.COS(=O)(=O)[O-], the activity coefficient was 5.4 ± 0.4.
Take `C1CCCCCC1` [cycloheptane] + CCCC[P+](C)(CCCC)CCCC.COS(=O)(=O)[O-]: the activity coefficient is 6.4 ± 0.4.
Regarding `CCCCC` [pentane] + CCCC[P+](C)(CCCC)CCCC.COS(=O)(=O)[O-], the activity coefficient was determined as 7.7 ± 0.5.
Same read-out and setting: next, `CCCCCC` [hexane] + CCCC[P+](C)(CCCC)CCCC.COS(=O)(=O)[O-]: 9.5 ± 0.7.
For the compound `CCCCCCCC` [octane] + CCCC[P+](C)(CCCC)CCCC.COS(=O)(=O)[O-], the activity coefficient came to 15.9 ± 1.1.

The same data set, now with this note: 328.15 K; Liquid; Chromatography; x1 = 0.
Regarding `C=CCCCC` [hex-1-ene] + CCCC[P+](C)(CCCC)CCCC.COS(=O)(=O)[O-], the activity coefficient was found to be 5.3 ± 0.4.
Same read-out and setting: the result for `C=CCCCCC` [1-heptene] + CCCC[P+](C)(CCCC)CCCC.COS(=O)(=O)[O-] reads 7.1 ± 0.5; that for `c1ccccc1` [benzene] + CCCC[P+](C)(CCCC)CCCC.COS(=O)(=O)[O-], 0.9 ± 0.1; that for `C=CCCCCCC` [oct-1-ene] + CCCC[P+](C)(CCCC)CCCC.COS(=O)(=O)[O-], 8.9 ± 0.6.
Regarding `CCCCCCC` [heptane] + CCCC[P+](C)(CCCC)CCCC.COS(=O)(=O)[O-], the activity coefficient is 10.7 ± 0.7.
Regarding `C1CCCC1` [cyclopentane] + CCCC[P+](C)(CCCC)CCCC.COS(=O)(=O)[O-], the activity coefficient turned out to be 3.5 ± 0.2.
`C1CCCCC1` [cyclohexane] + CCCC[P+](C)(CCCC)CCCC.COS(=O)(=O)[O-]: the activity coefficient turned out to be 4.6 ± 0.3.
Turning to `C1CCCCCC1` [cycloheptane] + CCCC[P+](C)(CCCC)CCCC.COS(=O)(=O)[O-], the activity coefficient came to 5.3 ± 0.4.
In the case of `CCCCC` [pentane] + CCCC[P+](C)(CCCC)CCCC.COS(=O)(=O)[O-], the activity coefficient worked out at 6.7 ± 0.5.
The same measure, in the same setting: next, `CCCCCC` [hexane] + CCCC[P+](C)(CCCC)CCCC.COS(=O)(=O)[O-]: 8.4 ± 0.6; `CCCCCCCC` [octane] + CCCC[P+](C)(CCCC)CCCC.COS(=O)(=O)[O-]: 13.8 ± 0.9.
